Test results published in ChEMBL document CHEMBL4190339, “Design, synthesis and preliminary biological evaluation of new [1,2,3]triazolo[4,5-d]pyrimidine/thiourea hybrids as antiproliferative agents” (Eur J Med Chem, 2017).
pIC50: −log10 of the molar value. One block for each compound: values may come before it. Active and inactive are the calls of the source. No cut-off for these calls is given here.

Legend:
A549 = test: Antiproliferative activity against human A549 cells after 48 hrs by MTT assay; format: functional, cell-based; settings: A549, 48 h
MKN-45 = test: Antiproliferative activity against human MKN45 cells after 48 hrs by MTT assay; format: functional, cell-based; settings: MKN-45, 48 h
GES1 = test: Antiproliferative activity against human GES-1 cells after 48 hrs by MTT assay; format: cell-based; settings: GES1, 48 h
MGC-803 = test: Antiproliferative activity against human MGC803 cells after 48 hrs by MTT assay; format: functional, cell-based; settings: MGC-803, 48 h
ECa-109 cell line = test: Antiproliferative activity against human EC109 cells after 48 hrs by MTT assay; format: functional, cell-based; settings: ECa-109, 48 h
NCI-H1650 [1] = test: Antiproliferative activity against human NCI-H1650 cells after 48 hrs by MTT assay; format: functional, cell-based; settings: NCI-H1650, 48 h
NCI-H1650 [2] = test: Induction of apoptosis in human NCI-H1650 cells assessed as early apoptotic cells at 4 uM after 24 hrs by Annexin-V-FITC/propidium iodide staining based flow cytometry (reference value: 5.58%); format: functional
NCI-H1650 [3] = test: Cell cycle arrest in human NCI-H1650 cells assessed as accumulation at G1 phase at 4 uM after 24 hrs by propidium iodide staining-based flow cytometry (reference value: 55.7%); format: functional
NCI-H1650 [4] = test: Induction of apoptosis in human NCI-H1650 cells assessed as increase in cleaved caspase-9 level up to 8 uM after 24 hrs by Western blot analysis; format: functional, cell-based
NCI-H1650 [5] = test: Cell cycle arrest in human NCI-H1650 cells assessed as accumulation at S phase at 4 uM after 24 hrs by propidium iodide staining-based flow cytometry (reference value: 36.2%); format: functional
NCI-H1650 [6] = test: Cell cycle arrest in human NCI-H1650 cells assessed as accumulation at G2/M phase at 4 uM after 24 hrs by propidium iodide staining-based flow cytometry (reference value: 12.4%); format: functional
NCI-H1650 [7] = test: Anticlonogenic activity against human NCI-H1650 cells assessed as inhibition of colony formation after 9 days by crystal violet staining-based assay; format: functional, cell-based
NCI-H1650 [8] = test: Induction of apoptosis in human NCI-H1650 cells assessed as increase in Bax expression measured after 24 hrs by Western blot analysis; format: functional, cell-based
NCI-H1650 [9] = test: Cell cycle arrest in human NCI-H1650 cells assessed as accumulation at G2/M phase at 8 uM after 24 hrs by propidium iodide staining-based flow cytometry (reference value: 12.4%); format: functional
NCI-H1650 [10] = test: Induction of apoptosis in human NCI-H1650 cells assessed as viable cells at 4 uM after 24 hrs by Annexin-V-FITC/propidium iodide staining based flow cytometry (reference value: 83.6%); format: functional; settings: NCI-H1650, 24 h, read-out: Activity
NCI-H1650 [11] = test: Anticlonogenic activity against human NCI-H1650 cells assessed as inhibition of colony formation at 10 uM after 9 days by crystal violet staining-based assay relative to control; format: functional; settings: NCI-H1650, 216 h
NCI-H1650 [12] = test: Induction of apoptosis in human NCI-H1650 cells assessed as viable cells at 2 uM after 24 hrs by Annexin-V-FITC/propidium iodide staining based flow cytometry (reference value: 83.6%); format: functional; settings: NCI-H1650, 24 h, read-out: Activity
NCI-H1650 [13] = test: Cell cycle arrest in human NCI-H1650 cells assessed as accumulation at G2/M phase at 2 uM after 24 hrs by propidium iodide staining-based flow cytometry (reference value: 12.4%); format: functional
NCI-H1650 [14] = test: Induction of apoptosis in human NCI-H1650 cells assessed as late apoptotic cells at 2 uM after 24 hrs by Annexin-V-FITC/propidium iodide staining based flow cytometry (reference value: 7.64%); format: functional
[15] = Selectivity index, ratio of IC50 for human GES-1 cells to IC50 for human NCI-H1650 cells; format: toxicity; settings: GES-1 cells versus NCI-H1650 cells, read-out: Ratio IC50
NCI-H1650 [16] = test: Cell cycle arrest in human NCI-H1650 cells assessed as accumulation at S phase at 2 uM after 24 hrs by propidium iodide staining-based flow cytometry (reference value: 36.2%); format: functional
NCI-H1650 [17] = test: Induction of apoptosis in human NCI-H1650 cells assessed as increase in early apoptotic cells after 24 hrs by Annexin-V-FITC/propidium iodide staining based flow cytometry; format: functional, cell-based
NCI-H1650 [18] = test: Induction of apoptosis in human NCI-H1650 cells assessed as necrotic cells at 4 uM after 24 hrs by Annexin-V-FITC/propidium iodide staining based flow cytometry (reference value: 3.22%); format: functional
NCI-H1650 [19] = test: Cell cycle arrest in human NCI-H1650 cells assessed as accumulation at S phase at 8 uM after 24 hrs by propidium iodide staining-based flow cytometry (reference value: 36.2%); format: functional
NCI-H1650 [20] = test: Induction of apoptosis in human NCI-H1650 cells assessed as reduction in Bcl-2 expression up to 8 uM after 24 hrs by Western blot analysis; format: functional, cell-based
NCI-H1650 [21] = test: Induction of apoptosis in human NCI-H1650 cells assessed as late apoptotic cells at 4 uM after 24 hrs by Annexin-V-FITC/propidium iodide staining based flow cytometry (reference value: 7.64%); format: functional
NCI-H1650 [22] = test: Induction of apoptosis in human NCI-H1650 cells assessed as necrotic cells at 2 uM after 24 hrs by Annexin-V-FITC/propidium iodide staining based flow cytometry (reference value: 3.22%); format: functional
NCI-H1650 [23] = test: Cell cycle arrest in human NCI-H1650 cells assessed as accumulation at G2/M phase after 24 hrs by propidium iodide staining-based flow cytometry; format: functional
NCI-H1650 [24] = test: Cell cycle arrest in human NCI-H1650 cells assessed as accumulation at G1 phase at 8 uM after 24 hrs by propidium iodide staining-based flow cytometry (reference value: 55.7%); format: functional
NCI-H1650 [25] = test: Induction of apoptosis in human NCI-H1650 cells assessed as early apoptotic cells at 2 uM after 24 hrs by Annexin-V-FITC/propidium iodide staining based flow cytometry (reference value: 5.58%); format: functional
NCI-H1650 [26] = test: Cell cycle arrest in human NCI-H1650 cells assessed as accumulation at G1 phase at 2 uM after 24 hrs by propidium iodide staining-based flow cytometry (reference value: 55.7%); format: functional
NCI-H1650 [27] = test: Induction of apoptosis in human NCI-H1650 cells assessed as increase in cleaved caspase-3 level up to 8 uM after 24 hrs by Western blot analysis; format: functional, cell-based

Compound: CCCSc1nc(NCCNC(=S)Nc2cccnc2)c2nnn(Cc3ccccc3)c2n1
pIC50 (A549): 4.92 | pIC50 (MKN-45): 4.82 | pIC50 (GES1): 4.66 | pIC50 (MGC-803): 4.62 | pIC50 (ECa-109 cell line): 4.96 | pIC50 (NCI-H1650 [1]): 5.02

Compound: CCCSc1nc(NCCNC(=S)Nc2ccc(C)cc2)c2nnn(CCc3ccccc3)c2n1
pIC50 (A549): 4.37 | pIC50 (MKN-45): 4.30 | pIC50 (GES1): 4.37 | pIC50 (MGC-803): 4.45 | pIC50 (ECa-109 cell line): 4.55 | pIC50 (NCI-H1650 [1]): 4.23

Compound: CCCSc1nc(NCCNC(=S)Nc2ccccc2)c2nnn(CCc3ccccc3)c2n1
pIC50 (A549): < 4.19 | pIC50 (MKN-45): < 4.19 | pIC50 (GES1): 4.27 | pIC50 (MGC-803): < 4.19 | pIC50 (ECa-109 cell line): 4.43 | pIC50 (NCI-H1650 [1]): 4.31

Compound: CCCSc1nc(NCCNC(=S)Nc2cccc3ccccc23)c2nnn(CCc3ccccc3)c2n1
pIC50 (A549): 4.39 | pIC50 (MKN-45): 5.01 | pIC50 (GES1): < 4.19 | pIC50 (MGC-803): < 4.19 | pIC50 (ECa-109 cell line): < 4.19 | pIC50 (NCI-H1650 [1]): 5.19

Second part, led by results:

pIC50 (A549): 4.64 | pIC50 (MKN-45): 4.43 | pIC50 (MGC-803): 4.57 | pIC50 (NCI-H1650 [1]): 4.88
Compound: CCCSc1nc(NCCNC(=S)Nc2ccc(Cl)cc2)c2nnn(CCc3ccccc3)c2n1
pIC50 (GES1): 4.39 | pIC50 (ECa-109 cell line): 4.98

pIC50 (A549): 4.41 | pIC50 (MKN-45): 4.32 | pIC50 (MGC-803): < 4.19 | pIC50 (NCI-H1650 [1]): 4.58
Compound: CCCSc1nc(NCCNC(=S)Nc2ccc([N+](=O)[O-])cc2)c2nnn(CCc3ccccc3)c2n1
pIC50 (GES1): 4.45 | pIC50 (ECa-109 cell line): 4.24

pIC50 (A549): 4.82 | pIC50 (MKN-45): 4.87 | pIC50 (MGC-803): 4.72 | pIC50 (NCI-H1650 [1]): 5.05
Compound: CCCSc1nc(NCCNC(=S)Nc2cccnc2)c2nnn(C3CCCC3)c2n1
pIC50 (GES1): 4.48 | pIC50 (ECa-109 cell line): 4.90

pIC50 (A549): 5.48 | pIC50 (MKN-45): 5.49 | pIC50 (MGC-803): 5.04 | pIC50 (NCI-H1650 [1]): 5.72
Compound: CCCSc1nc(NCCNC(=S)Nc2cccnc2)c2nnn(CCc3c[nH]c4ccccc34)c2n1
Activity (NCI-H1650 [2]): 36.7% | Activity (NCI-H1650 [3]): 27.2% | Activity (NCI-H1650 [4]): Active | Activity (NCI-H1650 [5]): 21.9% | Activity (NCI-H1650 [6]): 34.7% | inhibition (NCI-H1650 [7]): Dose-dependent effect | Activity (NCI-H1650 [8]): Dose-dependent effect | Activity (NCI-H1650 [9]): 45.6% | viability at 4 µM (NCI-H1650 [10]): 46.8% | inhibition at 10 µM (NCI-H1650 [11]): ≤ 68% | pIC50 (GES1): 4.56 | viability at 2 µM (NCI-H1650 [12]): 51.1% | Activity (NCI-H1650 [13]): 23.2% | Activity (NCI-H1650 [14]): 12.3% | selectivity ratio [15]: 14.4 | Activity (NCI-H1650 [16]): 35.1% | Activity (NCI-H1650 [17]): Dose-dependent effect | pIC50 (ECa-109 cell line): 5.09 | Activity (NCI-H1650 [18]): 1.38% | Activity (NCI-H1650 [19]): 38.4% | Activity (NCI-H1650 [20]): Active | Activity (NCI-H1650 [21]): 15.1% | Activity (NCI-H1650 [22]): 1.14% | Activity (NCI-H1650 [23]): Dose-dependent effect | Activity (NCI-H1650 [24]): 20.8% | Activity (NCI-H1650 [25]): 35.5% | Activity (NCI-H1650 [26]): 30.6% | Activity (NCI-H1650 [27]): Active

pIC50 (A549): < 4.19 | pIC50 (MKN-45): 4.60 | pIC50 (MGC-803): < 4.19 | pIC50 (NCI-H1650 [1]): 4.34
Compound: CCCSc1nc(NCCNC(=S)Nc2cccnc2)c2nnn(CCO)c2n1
pIC50 (GES1): < 4.19 | pIC50 (ECa-109 cell line): 4.74

pIC50 (A549): 4.80 | pIC50 (MKN-45): 4.52 | pIC50 (MGC-803): 4.57 | pIC50 (NCI-H1650 [1]): 4.77
Compound: CCCSc1nc(NCCNC(=S)Nc2cccc(Cl)c2)c2nnn(CCc3ccccc3)c2n1
pIC50 (GES1): 4.22 | pIC50 (ECa-109 cell line): 4.93
